In patent US11472808B2, “Substituted pyrrolo[1,2-c]pyrimidines as hepatitis B antiviral agents” (Enanta Pharmaceuticals, Inc., priority 2019, dated 2022):

Tested on: HBV
Assay: HepAD38 anti-HBV assay: reduction of viral product accumulation (virion DNA qPCR, HBsAg/HBeAg ELISA)
Type: cell-based
Settings: Hepatitis B virus, 120 h; HepAD38 cells; concentration reducing viral product accumulation by 50% relative to no drug controls; harvest five days after compound addition; read-out: HepAD38 EC50
Procedure: Methods: HepAD38 cells are maintained as previously reported (Ladner et al, Antimicrob. Agents Chemother. 1997, […], 1715). Briefly, cells are passaged upon attaining confluency in DMEM/F12 media in the presence of 10% FBS, Penn/Strep, 250 μg/mL G418, and 1 μg/ml tetracycline. Novel compounds are screened by first washing cells three times with PBS to remove tetracycline, and plating in 96 well plates at 35,000 cells/well. Compounds dissolved in DMSO are then diluted 1:200 into wells containing cells. Five days after compound addition, material is harvested for analysis. For an extended 8 day analysis, cells are plated and treated as described above, but media and compound are refreshed on d2 and d5 post initial treatment.
On harvest day, virion DNA is obtained by lysing with Sidestep Lysis and Stabilization Buffer and then quantified via quantitative real time PCR. Commercially available ELISA kits are used to quantitate the viral proteins HBsAg (Alpco) or HbeAg (US Biological) by following the manufacturer's recommended protocol after diluting samples to match the linear range of their respective assays. Irrespective of readout, compound concentrations that reduce viral product accumulation in the cell lysates or supernatants by 50% relative to no drug controls (EC50) are reported; EC50 ranges are as follows: A<0.1 μM; B 0.1-0.4 μM; C>0.4 μM.

## COC(=O)OC[C@]1(F)CC2=C(c3ccn(C(F)F)n3)[C@H](c3ccc(F)cc3Cl)N=C(c3nccs3)N2C1 [Example 182]
  EC50: 100 to 400 nM

## CONC[C@]1(O)CC2=C(c3ccn(C(F)F)n3)[C@H](c3ccc(F)cc3Cl)N=C(c3nccs3)N2C1 [Example 127]
  EC50: > 400 nM

## O=C(N[C@H]1CC2=C(c3ccn(C(F)F)n3)[C@H](c3ccc(F)cc3Cl)N=C(c3nccs3)N2C1)O[C@H]1C[C@H](O)C1 [Example 255]
  EC50: 100 to 400 nM

## O=S(=O)(N[C@H]1CC2=C(c3ccn(C(F)F)n3)[C@H](c3ccc(F)cc3Cl)N=C(c3nccs3)N2C1)N1CCC2(CC2)C1 [Example 286]
  EC50: < 100 nM

## O=S(=O)(NCCCc1ccccn1)N[C@H]1CC2=C(c3ccn(C(F)F)n3)[C@H](c3ccc(F)cc3Cl)N=C(c3nccs3)N2C1 [Example 350]
  EC50: 100 to 400 nM

## O=C(O)CC1CCN(C(=O)CC2CCN(CCS(=O)(=O)N[C@H]3CC4=C(c5ccn(C(F)F)n5)[C@H](c5ccc(F)cc5Cl)N=C(c5nccs5)N4C3)CC2)CC1 [Example 64]
  EC50: > 400 nM

## CC(C)(CNS(=O)(=O)N[C@H]1CC2=C(c3ccn(C(F)F)n3)[C@H](c3ccc(F)cc3Cl)N=C(c3nccs3)N2C1)c1ccccn1 [Example 315]
  EC50: 100 to 400 nM

## O=S(=O)(NC(CO)c1ccccn1)N[C@H]1CC2=C(c3ccn(C(F)F)n3)[C@H](c3ccc(F)cc3Cl)N=C(c3nccs3)N2C1 (some centres unmarked) [Example 338]
  EC50: < 100 nM

## Cc1ccc(C(=O)O)cc1S(=O)(=O)N[C@H]1CC2=C(c3ccn(C(F)F)n3)[C@H](c3ccc(F)cc3Cl)N=C(c3nccs3)N2C1 [Example 28]
  EC50: 100 to 400 nM

## CC1(C)CCCCN1S(=O)(=O)N[C@H]1CC2=C(c3ccn(C(F)F)n3)[C@H](c3ccc(F)cc3Cl)N=C(c3nccs3)N2C1 [Example 295]
  EC50: < 100 nM

## O=C(N[C@H]1CC2=C(c3ccn(C(F)F)n3)[C@H](c3ccc(F)cc3Cl)N=C(c3nccs3)N2C1)N1CC[C@@H](O)C1 [Example 225]
  EC50: < 100 nM

## O[C@@]1(CNCc2ccccc2)CC2=C(c3ccn(C(F)F)n3)[C@H](c3ccc(F)cc3Cl)N=C(c3nccs3)N2C1 [Example 119]
  EC50: > 400 nM

## CCNC(=O)N[C@H]1CC2=C(c3ccn(C(F)F)n3)[C@H](c3ccc(F)cc3Cl)N=C(c3nccs3)N2C1 [Example 203]
  EC50: < 100 nM

## COC(=O)CC1CCN(C(=O)CC2CCN(CCS(=O)(=O)N[C@H]3CC4=C(c5ccn(C(F)F)n5)[C@H](c5ccc(F)cc5Cl)N=C(c5nccs5)N4C3)CC2)CC1 [Example 62]
  EC50: < 100 nM

## O=S(=O)(N[C@H]1CC2=C(c3ccn(C(F)F)n3)[C@H](c3ccc(F)cc3Cl)N=C(c3nccs3)N2C1)C1CCCCC1 [Example 240]
  EC50: < 100 nM

## O=S(=O)(CCCC(O)c1ccccn1)N[C@H]1CC2=C(c3ccn(C(F)F)n3)[C@H](c3ccc(F)cc3Cl)N=C(c3nccs3)N2C1 (some centres unmarked) [Example 297]
  EC50: 100 to 400 nM

## O=S(=O)(Nc1ccccn1)N[C@H]1CC2=C(c3ccn(C(F)F)n3)[C@H](c3ccc(F)cc3Cl)N=C(c3nccs3)N2C1 [Example 320]
  EC50: 100 to 400 nM

## O=C(O)c1ccc(Cl)c(S(=O)(=O)N[C@H]2CC3=C(c4ccn(C(F)F)n4)[C@H](c4ccc(F)cc4Cl)N=C(c4nccs4)N3C2)c1 [Example 27]
  EC50: 100 to 400 nM

## COC(=O)c1ccccc1S(=O)(=O)NC[C@@]1(F)CC2=C(c3ccn(C(F)F)n3)[C@H](c3ccc(F)cc3Cl)N=C(c3nccs3)N2C1 [Example 188]
  EC50: > 400 nM

## CS(=O)(=O)[C@H]1CC2=C(c3ccn(C(F)F)n3)[C@H](c3ccc(F)cc3Cl)N=C(c3nccs3)N2C1 [Example 134]
  EC50: 100 to 400 nM

## CS(=O)(=O)NCCS(=O)(=O)N[C@H]1CC2=C(c3ccn(C(F)F)n3)[C@H](c3ccc(F)cc3Cl)N=C(c3nccs3)N2C1 [Example 344]
  EC50: 100 to 400 nM

## O=S(=O)(N[C@H]1CC2=C(c3ccn(C(F)F)n3)[C@H](c3ccc(F)cc3Cl)N=C(c3nccs3)N2C1)N1CC[C@H](F)C1 [Example 272]
  EC50: < 100 nM

## O=S(=O)(NCc1ncc[nH]1)N[C@H]1CC2=C(c3ccn(C(F)F)n3)[C@H](c3ccc(F)cc3Cl)N=C(c3nccs3)N2C1 [Example 314]
  EC50: 100 to 400 nM

## COC(=O)c1ccc(C)c(S(=O)(=O)N[C@H]2CC3=C(c4ccn(C(F)F)n4)[C@H](c4ccc(F)cc4Cl)N=C(c4nccs4)N3C2)c1 [Example 25]
  EC50: 100 to 400 nM

## CC1CCC(C)N1S(=O)(=O)N[C@H]1CC2=C(c3ccn(C(F)F)n3)[C@H](c3ccc(F)cc3Cl)N=C(c3nccs3)N2C1 (some centres unmarked) [Example 291]
  EC50: < 100 nM

## O=S(=O)(N[C@H]1CC2=C(c3ccn(C(F)F)n3)[C@H](c3ccc(F)cc3Cl)N=C(c3nccs3)N2C1)c1cc(Cl)cc(Cl)c1 [Example 395]
  EC50: 100 to 400 nM

## CNCCS(=O)(=O)N[C@H]1CC2=C(c3ccn(C(F)F)n3)[C@H](c3ccc(F)cc3Cl)N=C(c3nccs3)N2C1 [Example 52]
  EC50: < 100 nM

## O=C1NC2(CCN(S(=O)(=O)N[C@H]3CC4=C(c5ccn(C(F)F)n5)[C@H](c5ccc(F)cc5Cl)N=C(c5nccs5)N4C3)CC2)CO1 [Example 162]
  EC50: < 100 nM

## COC(=O)c1ccccc1S(=O)(=O)NC[C@]1(F)CC2=C(c3ccn(C(F)F)n3)[C@H](c3ccc(F)cc3Cl)N=C(c3nccs3)N2C1 [Example 189]
  EC50: > 400 nM

## CC(C)[C@]1(O)CC[C@H](c2ccc(S(=O)(=O)N[C@H]3CC4=C(c5ccn(C(F)F)n5)[C@H](c5ccc(F)cc5Cl)N=C(c5nccs5)N4C3)cc2)CC1 [Example 414]
  EC50: < 100 nM

## O=S(=O)(NC1CCCCC1)N[C@H]1CC2=C(c3ccn(C(F)F)n3)[C@H](c3ccc(F)cc3Cl)N=C(c3nccs3)N2C1 [Example 417]
  EC50: < 100 nM

## CC(C)(C)OC(=O)Nc1cccc(S(=O)(=O)N[C@H]2CC3=C(c4ccn(C(F)F)n4)[C@H](c4ccc(F)cc4Cl)N=C(c4nccs4)N3C2)n1 [Example 382]
  EC50: 100 to 400 nM

## O=S(=O)(N[C@H]1CC2=C(c3ccn(C(F)F)n3)[C@H](c3ccc(F)cc3Cl)N=C(c3nccs3)N2C1)N1C[C@@H](O)[C@H](O)C1 [Example 102]
  EC50: < 100 nM

## O=S(=O)(N[C@H]1CC2=C(c3ccn(C(F)F)n3)[C@H](c3ccc(F)cc3Cl)N=C(c3nccs3)N2C1)NC1(c2ccccn2)CC1 [Example 321]
  EC50: < 100 nM

## O[C@]1(CN2CCOCC2)CC2=C(c3ccn(C(F)F)n3)[C@H](c3ccc(F)cc3Cl)N=C(c3nccs3)N2C1 [Example 138]
  EC50: > 400 nM

## COC(=O)CC1CCN(CCS(=O)(=O)N[C@H]2CC3=C(c4ccn(C(F)F)n4)[C@H](c4ccc(F)cc4Cl)N=C(c4nccs4)N3C2)CC1 [Example 61]
  EC50: < 100 nM

## O=C(NCc1ccccn1)N[C@H]1CC2=C(c3ccn(C(F)F)n3)[C@H](c3ccc(F)cc3Cl)N=C(c3nccs3)N2C1 [Example 217]
  EC50: > 400 nM

## O=C(N[C@H]1CC2=C(c3ccn(C(F)F)n3)[C@H](c3ccc(F)cc3Cl)N=C(c3nccs3)N2C1)N1CC[C@H](O)C1 [Example 224]
  EC50: < 100 nM

## O=C1N(CC#Cc2ccccc2)CCN1[C@H]1CC2=C(c3ccn(C(F)F)n3)[C@H](c3ccc(F)cc3Cl)N=C(c3nccs3)N2C1 [Example 48]
  EC50: > 400 nM

## COC(=O)N1CCN(S(=O)(=O)N[C@H]2CC3=C(c4ccn(C(F)F)n4)[C@H](c4ccc(F)cc4Cl)N=C(c4nccs4)N3C2)CC1 [Example 152]
  EC50: < 100 nM

## CCOC(=O)/C=C/[C@]1(F)CC2=C(c3ccn(C(F)F)n3)[C@H](c3ccc(F)cc3Cl)N=C(c3nccs3)N2C1 [Example 172]
  EC50: 100 to 400 nM

## O[C@]1(CNCc2ccccc2)CC2=C(c3ccn(C(F)F)n3)[C@H](c3ccc(F)cc3Cl)N=C(c3nccs3)N2C1 [Example 118]
  EC50: > 400 nM

## O=C(N[C@H]1CC2=C(c3ccn(C(F)F)n3)[C@H](c3ccc(F)cc3Cl)N=C(c3nccs3)N2C1)c1ccncc1 [Example 231]
  EC50: < 100 nM

## O=S(=O)(N[C@H]1CC2=C(c3ccn(C(F)F)n3)[C@H](c3ccc(F)cc3Cl)N=C(c3nccs3)N2C1)N1CCC(F)(F)CC1 [Example 277]
  EC50: < 100 nM

## O=C(NC1CC1)N[C@H]1CC2=C(c3ccn(C(F)F)n3)[C@H](c3ccc(F)cc3Cl)N=C(c3nccs3)N2C1 [Example 205]
  EC50: < 100 nM

## CC(C)(C)[Si](C)(C)OCC1(F)CC2=C(c3ccn(C(F)F)n3)[C@H](c3ccc(F)cc3Cl)N=C(c3nccs3)N2C1 (some centres unmarked) [Example 164]
  EC50: > 400 nM

## O=C(N[C@H]1CC2=C(c3ccn(C(F)F)n3)[C@H](c3ccc(F)cc3Cl)N=C(c3nccs3)N2C1)N1CCC(O)(c2ccccc2)CC1 [Example 242]
  EC50: 100 to 400 nM

## O/N=C/[C@@]1(F)CC2=C(c3ccn(C(F)F)n3)[C@H](c3ccc(F)cc3Cl)N=C(c3nccs3)N2C1 [Example 180]
  EC50: > 400 nM

## CCOC(=O)C1CCN(CCS(=O)(=O)N[C@H]2CC3=C(c4ccn(C(F)F)n4)[C@H](c4ccc(F)cc4Cl)N=C(c4nccs4)N3C2)CC1 [Example 58]
  EC50: 100 to 400 nM

## OCC[C@]1(F)CC2=C(c3ccn(C(F)F)n3)[C@H](c3ccc(F)cc3Cl)N=C(c3nccs3)N2C1 [Example 167]
  EC50: > 400 nM

## COC(=O)c1cccc(S(=O)(=O)NC[C@@]2(O)CC3=C(c4ccn(C(F)F)n4)[C@H](c4ccc(F)cc4Cl)N=C(c4nccs4)N3C2)c1 [Example 131]
  EC50: 100 to 400 nM

## O=S(=O)(NCC(O)c1ccccn1)N[C@H]1CC2=C(c3ccn(C(F)F)n3)[C@H](c3ccc(F)cc3Cl)N=C(c3nccs3)N2C1 (some centres unmarked) [Example 308]
  EC50: < 100 nM

## COC(=O)Cc1ccc(S(=O)(=O)N[C@H]2CC3=C(c4ccn(C(F)F)n4)[C@H](c4ccc(F)cc4Cl)N=C(c4nccs4)N3C2)cc1 [Example 35]
  EC50: < 100 nM
